Assay results published in patent US7872014B2, “Anaplastic lymphoma kinase modulators and methods of use” (Exelixis, Inc., priority 2003, dated 2011).

Molecular target: T1, ALK (baculovirus expressed human ALK kinase domain F1098-K1410) (Homo sapiens, UniProt Q9UM73)
T1 construct: baculovirus expressed human ALK kinase domain F1098-K1410; made in house
Experiment: Luciferase-Coupled Chemiluminescent Kinase assay (LCCA), ALK biochemical activity
Details: inhibition of ALK; mean values; 1 μM ATP, 4 μM poly-AEKY, 12 nM ALK, 2 hours ambient temperature
Protocol: ALK biochemical activity was assessed using a Luciferase-Coupled Chemiluminescent Kinase assay (LCCA) format in which kinase activity was measured as the percent ATP remaining following the kinase reaction. ATP remaining after the kinase reaction was detected by luciferase-luciferin-coupled chemiluminescence.
The reaction was initiated by mixing test compounds, 1 μM ATP, 4 μM poly-AEKY and 12 nM ALK (baculovirus expressed human ALK kinase domain F1098-K1410) in a 20 μL assay buffer ([…] pH 7.5, 10 mM MgCl2, 0.02% Triton X-100, 100 mM DTT, 2 mM MnCl2). The mixture was incubated at ambient temperature for 2 hours after which 20 μL luciferase-luciferin mix was added and the chemiluminescent signal read using a Wallac Victor^2 reader. The luciferase-luciferin mix consists of 50 mM HEPES, pH 7.8, 8.5 μg/mL oxalic acid (pH 7.8), 5 (or 50) mM DTT, 0.4% Triton X-100, 0.25 mg/mL coenzyme A, 63 μM AMP, 28 μg/mL luciferin and 40,000 units of light/mL luciferase.
Consumption of ATP by ALK can thus be quantified and utilized as a measure of inhibition of ALK activity by compounds described herein. By employing serial dilutions of compounds to be tested, the ability of test compounds to inhibit ALK activity can be determined.

T1 sequence (Q9UM73 1098-1410): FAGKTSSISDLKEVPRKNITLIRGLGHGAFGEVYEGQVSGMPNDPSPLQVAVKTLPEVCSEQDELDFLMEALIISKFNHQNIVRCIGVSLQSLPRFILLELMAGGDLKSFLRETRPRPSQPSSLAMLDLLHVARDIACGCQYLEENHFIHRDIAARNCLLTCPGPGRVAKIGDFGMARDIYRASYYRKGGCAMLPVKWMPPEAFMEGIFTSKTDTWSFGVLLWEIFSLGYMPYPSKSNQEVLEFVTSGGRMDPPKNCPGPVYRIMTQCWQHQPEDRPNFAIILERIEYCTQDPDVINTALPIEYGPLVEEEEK

Row | SMILES | IC50 [nM]
1 | COc1cc2c(-c3ccc(O)cc3Cl)nc3[nH]nc(C)c3c2cc1OC [Example 96, 3-chloro-4-[1-methyl-7,8-bis(methyloxy)-3H-pyrazolo[3,4-c]isoquinolin-5-yl]phenol] | ≤ 99
2 | COCCOc1ccc2c(-c3ccc(O)cc3)nc3[nH]nc(C)c3c2c1OCCOC [Example 97, 4-(1-methyl-8,9-bis{[2-(methyloxy)ethyl]oxy}-3H-pyrazolo[3,4-c]isoquinolin-5-yl)phenol] | ≤ 99
3 | Cc1n[nH]c2nc(-c3ccc(O)cc3)c3ccccc3c12 [Example 98, 4-(1-methyl-3H-pyrazolo[3,4-c]isoquinolin-5-yl)phenol] | ≤ 99
4 | Cc1n[nH]c2nc(-c3ccc(O)c(Cl)c3)c3ccccc3c12 [Example 99, 2-chloro-4-(1-methyl-3H-pyrazolo[3,4-c]isoquinolin-5-yl)phenol] | ≤ 99
5 | Cc1n[nH]c2nc(-c3ccc(O)c(Br)c3)c3ccccc3c12 [Example 100, 2-bromo-4-(1-methyl-3H-pyrazolo[3,4-c]isoquinolin-5-yl)phenol] | ≤ 99
6 | COc1cc2c(cc1C)c(-c1ccc(O)c(Cl)c1)nc1[nH]nc(C)c12 [Example 101, 2-chloro-4-[1,7-dimethyl-8-(methyloxy)-3H-pyrazolo[3,4-c]isoquinolin-5-yl]phenol] | ≤ 99
7 | COc1cc2c(cc1C)c(-c1ccc(O)c(Br)c1)nc1[nH]nc(C)c12 [Example 102, 2-bromo-4-[1,7-dimethyl-8-(methyloxy)-3H-pyrazolo[3,4-c]isoquinolin-5-yl]phenol] | ≤ 99
8 | COc1cc2c(-c3ccc(O)c(Cl)c3)nc3[nH]nc(C)c3c2cc1OCC1CCN(C(C)C)CC1 [Example 103, 2-chloro-4-[1-methyl-8-({[1-(1-methylethyl)piperidin-4-yl]methyl}oxy)-7-(methyloxy)-3H-pyrazolo[3,4-c]isoquinolin-5-yl]phenol] | ≤ 99
9 | COc1ccc2c(-c3ccc(O)cc3)nc3[nH]nc(C)c3c2c1Br [Example 104, 4-[9-bromo-1-methyl-8-(methyloxy)-3H-pyrazolo[3,4-c]isoquinolin-5-yl]phenol] | ≤ 99
10 | COc1c(Cl)cc2c(-c3ccc(O)cc3)nc3[nH]nc(C)c3c2c1F [Example 105, 4-[7-chloro-9-fluoro-1-methyl-8-(methyloxy)-3H-pyrazolo[3,4-c]isoquinolin-5-yl]phenol] | 100 to 999
11 | COc1cc2c(-c3ccc(O)c(Cl)c3)nc3[nH]nc(C)c3c2cc1OCC1CCN(C(C)=O)CC1 [Example 106, 4-[8-{[(1-acetylpiperidin-4-yl)methyl]oxy}-1-methyl-7-(methyloxy)-3H-pyrazolo[3,4-c]isoquinolin-5-yl]-2-chlorophenol] | ≤ 99
12 | COc1ccc2c(-c3ccc(O)c(Br)c3)nc3[nH]nc(C)c3c2c1OCC1CCN(C(C)=O)CC1 [Example 107, 4-[9-{[(1-acetylpiperidin-4-yl)methyl]oxy}-1-methyl-8-(methyloxy)-3H-pyrazolo[3,4-c]isoquinolin-5-yl]-2-bromophenol] | ≤ 99
13 | COCCOc1ccc2c(-c3ccc(O)c(Cl)c3)nc3[nH]nc(C)c3c2c1OC [Example 108, 2-chloro-4-(1-methyl-9-(methyloxy)-8-{[2-(methyloxy)ethyl]oxy}-3H-pyrazolo[3,4-c]isoquinolin-5-yl)phenol] | ≤ 99
14 | COc1cc2c(cc1F)c(-c1ccc(O)cc1)nc1[nH]nc(C)c12 [Example 109, 4-[7-fluoro-1-methyl-8-(methyloxy)-3H-pyrazolo[3,4-c]isoquinolin-5-yl]phenol] | 100 to 999
15 | COCCOc1ccc2c(-c3ccc(O)c(Cl)c3)nc3[nH]nc(C)c3c2c1OCCOC [Example 110, 2-chloro-4-(1-methyl-8,9-bis{[2-(methyloxy)ethyl]oxy}-3H-pyrazolo[3,4-c]isoquinolin-5-yl)phenol] | ≤ 99
16 | COCCOc1ccc2c(-c3ccc(O)c(Br)c3)nc3[nH]nc(C)c3c2c1OCCOC [Example 111, 2-bromo-4-(1-methyl-8,9-bis{[2-(methyloxy)ethyl]oxy}-3H-pyrazolo[3,4-c]isoquinolin-5-yl)phenol] | ≤ 99
17 | COCCOc1c(OC)ccc2c(-c3ccc(O)c(Cl)c3)nc3[nH]nc(C)c3c12 [Example 112, 2-chloro-4-(1-methyl-8-(methyloxy)-9-{[2-(methyloxy)ethyl]oxy}-3H-pyrazolo[3,4-c]isoquinolin-5-yl)phenol] | ≤ 99
18 | COCCOc1c(OC)ccc2c(-c3ccc(O)c(Br)c3)nc3[nH]nc(C)c3c12 [Example 113, 2-bromo-4-(1-methyl-8-(methyloxy)-9-{[2-(methyloxy)ethyl]oxy}-3H-pyrazolo[3,4-c]isoquinolin-5-yl)phenol] | ≤ 99

Row | SMILES | IC50 [nM]
19 | COc1cc2c(-c3ccc(O)cc3F)nc3[nH]nc(C)c3c2cc1OC [Example 114, 3-fluoro-4-[1-methyl-7,8-bis(methyloxy)-3H-pyrazolo[3,4-c]isoquinolin-5-yl]phenol] | ≤ 99
20 | COCCOc1cc2c(cc1OC)c(-c1ccc(O)c(Cl)c1)nc1[nH]nc(C)c12 [Example 115, 2-chloro-4-(1-methyl-7-(methyloxy)-8-{[2-(methyloxy)ethyl]oxy}-3H-pyrazolo[3,4-c]isoquinolin-5-yl)phenol] | ≤ 99
21 | COCCOc1cc2c(cc1OC)c(-c1ccc(O)c(Br)c1)nc1[nH]nc(C)c12 [Example 116, 2-bromo-4-(1-methyl-7-(methyloxy)-8-{[2-(methyloxy)ethyl]oxy}-3H-pyrazolo[3,4-c]isoquinolin-5-yl)phenol] | ≤ 99
22 | COCCOc1cc2c(-c3ccc(O)c(Cl)c3)nc3[nH]nc(C)c3c2cc1OCCOC [Example 117, 2-chloro-4-(1-methyl-7,8-bis{[2-(methyloxy)ethyl]oxy}-3H-pyrazolo[3,4-c]isoquinolin-5-yl)phenol] | 100 to 999
23 | COCCOc1cc2c(-c3ccc(O)c(Br)c3)nc3[nH]nc(C)c3c2cc1OCCOC [Example 118, 2-bromo-4-(1-methyl-7,8-bis{[2-(methyloxy)ethyl]oxy}-3H-pyrazolo[3,4-c]isoquinolin-5-yl)phenol] | 100 to 999
24 | COCCOc1cc(F)c2c(-c3ccc(O)cc3)nc3[nH]nc(C)c3c2c1F [Example 120, 4-(6,9-difluoro-1-methyl-8-{[2-(methyloxy)ethyl]oxy}-3H-pyrazolo[3,4-c]isoquinolin-5-yl)phenol] | ≤ 99
25 | COc1cc2c(-c3cc(Cl)c(O)cc3F)nc3[nH]nc(C)c3c2cc1OC [Example 121, 2-chloro-5-fluoro-4-[1-methyl-7,8-bis(methyloxy)-3H-pyrazolo[3,4-c]isoquinolin-5-yl]phenol] | ≤ 99
26 | COc1cc2c(-c3cc(Br)c(O)cc3F)nc3[nH]nc(C)c3c2cc1OC [Example 122, 2-bromo-5-fluoro-4-[1-methyl-7,8-bis(methyloxy)-3H-pyrazolo[3,4-c]isoquinolin-5-yl]phenol] | ≤ 99
27 | COc1cc2c(-c3ccc(O)cc3)cc3[nH]nc(C)c3c2c(F)c1OC [Example 123, 4-[9-fluoro-1-methyl-7,8-bis(methyloxy)-3H-benzo[e]indazol-5-yl]phenol] | 100 to 999
28 | COCCOc1cc2c(cc1OC)c(-c1ccc(O)cc1F)nc1[nH]nc(C)c12 [Example 125, 3-fluoro-4-(1-methyl-7-(methyloxy)-8-{[2-(methyloxy)ethyl]oxy}-3H-pyrazolo[3,4-c]isoquinolin-5-yl)phenol] | ≤ 99
29 | COCCOc1cc(F)c2c(-c3ccc(O)cc3F)nc3[nH]nc(C)c3c2c1F [Example 126, 4-(6,9-difluoro-1-methyl-8-{[2-(methyloxy)ethyl]oxy}-3H-pyrazolo[3,4-c]isoquinolin-5-yl)-3-fluorophenol] | ≤ 99
30 | COCCOc1cc(F)c2c(-c3ccc(O)c(Cl)c3)nc3[nH]nc(C)c3c2c1F [Example 127, 2-chloro-4-(6,9-difluoro-1-methyl-8-{[2-(methyloxy)ethyl]oxy}-3H-pyrazolo[3,4-c]isoquinolin-5-yl)phenol] | ≤ 99
31 | CCOc1cc2c(cc1OC)c(-c1ccc(O)c(Cl)c1)nc1[nH]nc(C)c12 [Example 128, 2-chloro-4-[8-(ethyloxy)-1-methyl-7-(methyloxy)-3H-pyrazolo[3,4-c]isoquinolin-5-yl]phenol] | 100 to 999
32 | COc1cc2c(c(-c3ccc(O)c(Cl)c3)nc3[nH]nc(C)c32)c(Cl)c1OC [Example 129, 2-chloro-4-[6-chloro-1-methyl-7,8-bis(methyloxy)-3H-pyrazolo[3,4-c]isoquinolin-5-yl]phenol] | 100 to 999
33 | COCCOc1ccc2c(-c3ccc(O)cc3F)nc3[nH]nc(C)c3c2c1OC [Example 130, 3-fluoro-4-(1-methyl-9-(methyloxy)-8-{[2-(methyloxy)ethyl]oxy}-3H-pyrazolo[3,4-c]isoquinolin-5-yl)phenol] | ≤ 99
34 | COCCOc1cc2c(cc1C)c(-c1ccc(O)c(Cl)c1)nc1[nH]nc(C)c12 [Example 131, 2-chloro-4-(1,7-dimethyl-8-{[2-(methyloxy)ethyl]oxy}-3H-pyrazolo[3,4-c]isoquinolin-5-yl)phenol] | ≤ 99
35 | COCCOc1cc2c(c(-c3ccc(O)cc3F)nc3[nH]nc(C)c32)c(F)c1OC [Example 132, 3-fluoro-4-(6-fluoro-1-methyl-7-(methyloxy)-8-{[2-(methyloxy)ethyl]oxy}-3H-pyrazolo[3,4-c]isoquinolin-5-yl)phenol] | ≤ 99
